Results taken from patent US20250197390A1, “FUSED HETEROCYCLIC COMPOUND, AND PREPARATION METHOD THEREFOR AND MEDICAL USE THEREOF” (Jiangsu Hengrui Pharmaceuticals Co., Ltd., priority 2022, published 2025).

How the values were obtained:
HT29 cells = experiment: Inhibition of necroptosis of HT29 cells (CTG method); format: cell-based; conditions: Homo sapiens, HT-29, TZA mixture (TNFα, Z-VAD-FMK, AT-406) 24 h, CellTiter-Glo, read-out: IC50, inhibitory effect on necroptosis of HT29 cells
Procedure: Test Example 1: Inhibitory Effects of Compounds of the Present Disclosure on Necroptosis of HT29 Cells
The CTG method was used for detecting the inhibitory effects of the compounds of the present disclosure on the necroptosis of HT29 cells. The specific procedures are as follows:
HT29 cells were purchased from American Type Culture Collection (ATCC, HTB-38) and cultured with a McCoy's 5A medium (10% FBS) in a 37° C. incubator with 5% carbon dioxide. The cell culture density was maintained at 2×10^4 to 8×10^4 cells/cm^2, and the cells were passaged 2-3 times a week.
• a. Test compounds were dissolved in DMSO to 2 mM. • b. The compounds were 3-fold diluted from an initial concentration of 2 mM to 10 gradient concentrations. • c. All concentrations of compounds were 100-fold diluted with the culture medium for later use.
• a. The cells were counted, and the cell density was adjusted to 1×10^5 cells/mL with a fresh culture medium. • b. The cells were seeded in a 96-well plate at 80 µL/well and cultured at 37° C. overnight. • c. […] After the culture plate was left to stand at room temperature for 0.5 h, a stable luminescence signal was obtained, and then the plate was read using a microplate reader. • g. The IC50 values of the compounds of the present disclosure were calculated by the Graphpad software.

RIPK1 kinase = RIPK1 kinase (Homo sapiens (Human), UniProt Q13546); experiment: RIPK1 kinase inhibition (ADP-Glo method); format: biochemical; conditions: ATP and MBP substrate, 90 min, read-out: IC50, inhibitory activity against RIPK1 kinase
Chain of RIPK1 kinase (Q13546 1-327): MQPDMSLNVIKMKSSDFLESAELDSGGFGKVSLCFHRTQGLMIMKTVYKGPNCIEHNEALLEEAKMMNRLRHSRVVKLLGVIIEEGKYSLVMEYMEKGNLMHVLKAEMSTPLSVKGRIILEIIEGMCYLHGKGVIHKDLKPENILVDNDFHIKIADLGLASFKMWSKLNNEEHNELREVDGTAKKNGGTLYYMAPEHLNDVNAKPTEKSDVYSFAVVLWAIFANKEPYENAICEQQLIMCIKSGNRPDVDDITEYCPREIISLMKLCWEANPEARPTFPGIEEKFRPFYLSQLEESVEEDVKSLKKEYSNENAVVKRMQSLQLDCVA
Excerpt: Test Example 2: Inhibitory Activities of Compounds of the Present Disclosure Against RIPK1 Kinase (ADP-Glo Method)
The ADP GLO method was used for detecting the inhibitory activities of the compounds of the present disclosure against RIPK1 kinase. The method is specifically as follows:
• 1) RIPK1 kinase reaction system (containing RIPK1 kinase, MBP, 5× reaction buffer, MnCl2 and DTT) (Promega, VA7592) • 2) ADP-Glo kinase detection kit (containing ADP-Glo reagent and kinase detection reagents) (Promega, V9101) • 3) ATP solution (10 mM) (Thermofisher PV3227) • 4) 96-well small-volume white plate (Cisbio, 66PL96100) • 5) PHERA star microplate reader (BMG labtech)
• a. Reaction buffer: a reaction buffer containing DTT at a final concentration of 50 μM and MnCl2 at a final concentration of 4 mM was prepared using 5× reaction buffer; • b. RIPK1 kinase solution: a RIPK1 kinase solution at a final concentration of 10 ng/μL was prepared using the reaction buffer; • c. […]
• a. […] The plate was read using the PHERA star microplate reader, and relative luminescence unit (RLU) values were recorded. • g. Plotting was performed using the Graphpad software, and the IC50 values of the compounds of the present disclosure were calculated.

[1] = Pharmacokinetic evaluation in beagles after intragastric administration; format: in vivo; conditions: both sexes, beagle, dog, plasma, po, 2 mg/kg
Procedure: Test Example 3: Pharmacokinetic Evaluation of Compound of the Present Disclosure in Dogs
Beagles were used as test animals. Plasma concentrations of the compound of Example 2 at different time points after intragastric administration of Example 2 compound to beagles were determined using an LC/MS/MS method. The pharmacokinetic performance of the compound of the present disclosure was studied in beagles and its pharmacokinetic profile was evaluated.
Eight beagles were provided by Jiangsu Johnbio Biotechnology Co., Ltd., with an equal number of males and females. The production license number was SCXK (Jiangsu) 2018-0005.
A certain amount of the compound of Example 2 was weighed out, and 5% DMSO+30% PG+30% PEG400+35% normal saline were added to prepare a 0.4 mg/mL clear solution.
The compound of Example 2 was administered at a dose of 2 mg/kg with a volume of 5 mL/kg.
The compound of Example 2 was intragastrically administered to the beagles. 0.5 mL of blood samples were collected from the forelimb vein 0 h before administration and 15 min, 30 min, 1.0 h, 2.0 h, 4.0 h, 6.0 h, 8.0 h, 11.0 h, and 24.0 h after administration. The blood samples were placed into EDTA-K2 anticoagulation test tubes and centrifuged at 10,000 rpm for 2 min (4° C.), and plasma was separated within 1 h and stored in a −80° C. refrigerator/dry ice before analysis. Two hours after administration, feeding was resumed.
After the administration of the compound of Example 2, the plasma concentrations of the compound of Example 2 in the beagles were determined: 50 μL of the beagle plasma at each time point after the administration was taken, and 25 μL of internal standard solution ([…] camptothecin) and 450 μL of acetonitrile were added, and the mixture was vortexed and centrifuged at 3700 rpm for 10 min. 0.5 μL of supernatant was collected for LC/MS/MS analysis.

Row | IC50 (RIPK1 kinase) | Vd/F ([1]; read-out: Apparent volume of distribution Vz/F) | AUC(0-t) ([1]; read-out: Area under curve AUC0-t) | CL/F ([1]; read-out: Clearance rate CL/F) | half-life ([1]; read-out: Half-life T1/2 (converted)) | Cmax ([1]; read-out: Plasma concentration Cmax) | MRT ([1]; read-out: Residence time MRT) | Structure (SMILES) | IC50 (HT29 cells)
1 | 2.7 nM | 0.49 L/kg | 51600 ng·h/mL | 0.48 mL/min/kg | 12.5 h | 2940 ng/mL | 19.4 h | Nc1nc2cc(-c3ccc4c(c3)C(=O)N(Cc3cc(OC(F)(F)F)ccc3F)CCC4)ccn2n1 [Example 2, 8-(2-Amino-[1,2,4]triazolo[1,5-a]pyridin-7-yl)-2-(2-fluoro-5-(trifluoromethoxy)benzyl)-2,3,4,5-tetrahydro-1H-benzo[c]azepin-1-one] | 1.5 nM
2 | 23 nM | – | – | – | – | – | – | Nc1nc2cc(-c3ccc4c(c3)C(=O)N(Cc3cc(OC(F)(F)F)ccc3F)CCO4)ccn2n1 [Example 1, 7-(2-Amino-[1,2,4]triazolo[1,5-a]pyridin-7-yl)-4-(2-fluoro-5-(trifluoromethoxy)benzyl)-3,4-dihydrobenzo[f][1,4]oxazepin-5(2H)-one] | 13.3 nM
